Test results: patent US20240199611A1, “ANTIBACTERIAL COMPOUNDS” (JANSSEN SCIENCES IRELAND UNLIMITED COMPANY, priority 2021, published 2024)

Row | SMILES | melting point [°C]
1 | CCc1nc2ccc(CCCOC)cn2c1C(=O)NCc1ccc(N2CCN(S(=O)(=O)C(F)(F)F)C=N2)cc1 [Compound 63] | 159.95
2 | CCc1nc2ccc(Cl)cn2c1C(=O)NCc1ccc(N2CCN(c3nccs3)C=N2)cc1 [Compound 76] | 232.4
3 | COc1ccn2nc(C)c(C(=O)NCc3ccc(N4CCN(S(=O)(=O)C(F)(F)F)C=N4)cc3)c2c1 [Compound 14] | 192.27
4 | CCc1nc2n(c1C(=O)NCc1ccc(N3CCNC=N3)cc1)CCCC2 [Compound 57] | 211.47
5 | CCc1nc2ccc(Cl)cn2c1C(=O)NCc1ccc(N2CCN(C)C=N2)cc1 [Compound 15] | 206.66
6 | O=C(NCc1ccc(N2CCN(S(=O)(=O)C(F)(F)F)C=N2)cc1)c1c(C2CC2)nc2ncc(Cl)cn12 [Compound 7] | 208.41
7 | CCc1nc2ccc(Cl)cn2c1C(=O)NCc1ccc(N2CCN(S(=O)(=O)C(F)(F)F)C(C)=N2)cc1 [Compound 21] | 157.49
8 | CCc1nc2ncc(Cl)cn2c1C(=O)NCc1ccc(N2CCN(S(=O)(=O)CC(C)C)C=N2)cc1 [Compound 23] | 207.21
9 | CCc1nc2cc(OC)ccn2c1C(=O)NCc1ccc(N2CCN(S(=O)(=O)C(F)(F)F)C(OC)=N2)cc1 [Compound 52] | 164.28
10 | CCc1nc2cc(OC)c(Cl)cn2c1C(=O)NCc1ccc(N2CCN(S(=O)(=O)C(F)(F)F)C=N2)cc1 [Compound 64] | 193.79
11 | CCc1nc2ccc(Cl)cn2c1C(=O)NCc1ccc(N2CCN(C(=O)C(F)(F)F)C=N2)cc1 [Compound 66] | 211.3
12 | CCc1nc2ccc(OC)cn2c1C(=O)NCc1ccc(N2CCN(S(=O)(=O)C(F)(F)F)C=N2)cc1 [Compound 42] | 147.57
13 | CCc1nc2cccc(Cl)n2c1C(=O)NCc1ccc(N2CCN(S(=O)(=O)C(F)(F)F)C(OC)=N2)cc1 [Compound 70] | 138.71
14 | CCc1nc2cc(Cl)c(OC)cn2c1C(=O)NCc1ccc(N2CCN(S(=O)(=O)C(F)(F)F)C(OC)=N2)cc1 [Compound 45] | 155.29
15 | CCc1nc2cc(OC)ccn2c1C(=O)NCc1ccc(N2CCN(S(=O)(=O)C(F)(F)F)C(OC)=N2)c(F)c1 [Compound 75] | 135.16
16 | CCc1nc2ccc(Cl)cn2c1C(=O)NCc1ccc(N2CCN(C(C)=O)C=N2)cc1 [Compound 18] | 245.36
17 | CCc1nc2ccc(Cl)cn2c1C(=O)NCc1cc(F)c(N2CCN(S(=O)(=O)C(F)(F)F)C=N2)c(F)c1 [Compound 35] | 152.93
18 | CCc1nc2c(Cl)c(OC)ccn2c1C(=O)NCc1ccc(N2CCN(S(=O)(=O)C(F)(F)F)C=N2)cc1 [Compound 39] | 211.19
19 | CCc1nc2ccc(C#N)cn2c1C(=O)NCc1ccc(N2CCN(S(=O)(=O)C(F)(F)F)C=N2)cc1 [Compound 72] | 216.25
20 | CCc1nc2ncc(COC)cn2c1C(=O)NCc1ccc(N2CCN(S(=O)(=O)C(F)(F)F)C=N2)cc1 [Compound 33] | 225.92
21 | CCc1nc2ccc(Cl)cn2c1C(=O)NCc1ccc(N2CCN(S(=O)(=O)C(F)(F)F)C(CCOC)=N2)cc1 [Compound 55] | 193.51
22 | CCc1nc2cc(Cl)c(OC)cn2c1C(=O)NCc1ccc(N2CCN(S(=O)(=O)C(F)(F)F)C=N2)cc1 [Compound 67] | 206.99
23 | CCc1nc2ccc(Cl)cn2c1C(=O)NCc1ccc(N2CCN(S(=O)(=O)C(F)(F)F)C=N2)cc1OC [Compound 22] | 175.12
24 | CCc1nc2ncc(Cl)cn2c1C(=O)NCc1ccc(N2CCN(S(=O)(=O)C(F)(F)F)C(OC)=N2)cc1 [Compound 27] | 174.88
25 | CCc1nc2ccc(OC)cn2c1C(=O)NCc1ccc(N2CCN(S(=O)(=O)C(F)(F)F)C(OC)=N2)c(F)c1 [Compound 48] | 74.6
26 | CCc1nc2ccc(Cl)cn2c1C(=O)NCc1ccc(N2CCN(C=O)C=N2)cc1 [Compound 38] | 255.93
27 | CCC1=NN(c2ccc(CNC(=O)c3c(CC)nc4ccc(Cl)cn34)cc2)CCN1S(=O)(=O)C(F)(F)F [Compound 2] | 178.31
